According to US20180148418A1, “AMIDO-SUBSTITUTED CYCLOHEXANE DERIVATIVES” (Bayer Pharma Aktiengesellschaft, priority 2015, published 2018):
pIC50: −log10 of the molar value.

Assays:
[1] = test system: wildtype Wnt signaling cascade; assay: HEK293 TOP assay (Super TopFlash luciferase reporter, Wnt-3a stimulated); format: cell-based; conditions: Homo sapiens, HEK293, 16 h, HEK293 TOP reporter cells, Wnt3a at EC50, 16 hours
From the text: 7.1 Measurement of the Inhibitory Activity of Selected Compounds on the Wildtype Wnt Signaling Cascade: HEK293 TOP/FOP Assay
In order to discover and characterize small molecules which inhibit the wildtype Wnt pathway, a cellular reporter assay was employed. The corresponding assay cell was generated by transfection of the mammalian cell line HEK293 (ATCC, #CRL-1573) with the Super TopFlash vector (Morin, Science 275, 1997, 1787-1790; Molenaar et al., Cell 86 (3), 1996, 391-399). The HEK293 cell line is cultivated at 37° C. and 5% CO2 in DMEM (Life Technologies, #41965-039), supplemented with 2 mM glutamine, 20 mM HEPES, 1.4 mM pyruvate, 0.15% Na-bicarbonate and 10% foetal bovine serum (GIBCO, #10270). Stable transfectants were generated by selection with 300 μg/ml Hygromycin.
(§1) In preparation of the assay, the two cell lines were plated 24 h before beginning the test at 10000 cells per well in a 384 micro titre plate (MTP) in 30 μl growth medium. […] The recombinant human Wnt-3a was thereby applied between 2500 and 5 ng/ml in two-fold dilution steps.
(§2) Selective inhibitory activity for small molecules on the wildtype Wnt pathway was determined after parallel incubation of both (TOP and FOP) HEK293 reporter cell lines with a compound dilution series from 50 μM to 15 nM in steps of 3.16-fold dilutions in CAFTY buffer (130 mM sodium chloride, 5 mM potassium chloride, 20 mM HEPES, 1 mM magnesium chloride, 5 mM sodium bicarbonate, pH 7.4) containing 2 mM Ca^2+ and 0.01% BSA.
(§3) The compounds were thereby serially prediluted in 100% DMSO and thereafter 50 fold into the CAFTY compound dilution buffer (described above).

[2] = test system: HEK293 cells cotransfected with the FOP control vector; assay: HEK293 FOP assay (control reporter with non-functional TCF elements); format: cell-based; conditions: Homo sapiens, 16 hours
Protocol: In a parallel approach, HEK293 cells were cotransfected with the FOP control vector and pcDNA3. The FOP vector is identical to the TOP construct, but it contains instead of functional TCF elements a randomized, non-functional sequence. For this transfection a stable transfected cell line was generated as well, based on selection with Geneticin (1 mg/ml).
as §1, §2, §3

[3] = target: T1, TNKS2 (Homo sapiens, UniProt Q9H2K2); assay: TNKS2 Assay B (auto-parsylation, [3H]-NAD+ SPA); format: biochemical; conditions: 6 nM TNKS2, auto-parsylation, over night at room temperature
T1 construct: purchased BPS Bioscience, San Diego, USA 80572 (TNKS2 Histone Ribosylation Assay Kit)
T1 sequence (Q9H2K2 1-1166): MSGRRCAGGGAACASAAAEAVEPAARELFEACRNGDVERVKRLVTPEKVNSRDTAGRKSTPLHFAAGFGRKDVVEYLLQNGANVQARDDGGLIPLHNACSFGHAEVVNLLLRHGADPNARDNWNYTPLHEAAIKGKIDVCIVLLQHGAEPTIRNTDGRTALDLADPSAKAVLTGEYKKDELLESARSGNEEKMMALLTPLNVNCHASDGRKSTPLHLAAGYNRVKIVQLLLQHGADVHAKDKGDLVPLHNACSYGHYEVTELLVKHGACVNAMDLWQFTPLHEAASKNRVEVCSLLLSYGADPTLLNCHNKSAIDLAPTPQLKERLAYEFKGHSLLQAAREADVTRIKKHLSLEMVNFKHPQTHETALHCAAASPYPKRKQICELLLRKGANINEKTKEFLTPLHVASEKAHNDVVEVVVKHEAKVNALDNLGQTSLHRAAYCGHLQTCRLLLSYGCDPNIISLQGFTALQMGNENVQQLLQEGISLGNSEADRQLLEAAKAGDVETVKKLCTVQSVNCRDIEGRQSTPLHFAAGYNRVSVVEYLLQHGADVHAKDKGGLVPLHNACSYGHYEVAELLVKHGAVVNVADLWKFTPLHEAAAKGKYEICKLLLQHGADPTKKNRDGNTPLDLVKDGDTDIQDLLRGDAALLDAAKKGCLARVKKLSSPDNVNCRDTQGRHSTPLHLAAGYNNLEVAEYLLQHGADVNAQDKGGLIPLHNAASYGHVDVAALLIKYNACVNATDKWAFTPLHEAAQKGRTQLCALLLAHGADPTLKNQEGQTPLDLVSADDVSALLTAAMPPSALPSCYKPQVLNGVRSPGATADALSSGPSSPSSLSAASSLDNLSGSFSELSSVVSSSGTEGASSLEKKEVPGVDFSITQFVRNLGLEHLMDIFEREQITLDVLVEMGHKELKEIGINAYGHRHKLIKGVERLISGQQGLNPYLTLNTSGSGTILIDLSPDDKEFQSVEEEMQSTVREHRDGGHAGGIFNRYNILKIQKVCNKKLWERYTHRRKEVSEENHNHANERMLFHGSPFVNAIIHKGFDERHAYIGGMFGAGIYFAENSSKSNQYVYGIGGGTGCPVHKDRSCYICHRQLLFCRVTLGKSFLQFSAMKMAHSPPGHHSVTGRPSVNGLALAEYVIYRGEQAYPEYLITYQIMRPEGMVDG
Protocol: The potency of selected compounds according to the invention was assessed applying a modified in vitro inhibition assay. Here, the TNKS2 catalyzed NAD^+-dependent ribosylation of the enzyme itself (auto-parsylation) was detected using [^3H]-NAD^+ as substrate and applying the scintillation proximity assay (SPA) method to detect tritium-labeled, parsylated TNKS2. The intensity of the readout signal is proportional to the incorporated [^3H]-NAD^+. Inhibition of TNKS2 leads to a decreased incorporation of [^3H]-NAD^+ and consequently to a lower readout signal intensity. The concentration of a test compound which inhibits the enzyme activity by 50% (corresponds to half of the normed readout signal intensity) is reported as IC50.
Protocol Auto-Parsylation Assay
The assay was conducted in a 96 well MTP format with the identical TNKS2 enzyme sample and NAD^+ sample as in the histone ribosylation assay with the following modifications: TNKS2 enzyme sample was diluted with a modified assay buffer (50 mM MES pH 7.0, 1 mM DTT, 0.01% Triton X-100) to a final concentration of 6 nM TNKS2 and 10×NAD^+ solution was diluted with the modified assay buffer (s. above) to a final 0.445×NAD^+ solution doped with 100 Bq/μl [^3H]-NAD^+[Catalog #NET443H050UC, Perkin Elmer, Waltham, Mass., USA]. Substrate solution (10 μl) was incubated with different test compound concentrations (2.5 μl in 10% DMSO in modified assay buffer) or control (2.5 μl 10% DMSO in modified assay buffer only) and enzyme (10 μl) over night at room temperature. Incorporated tritium was measured after addition of 50 ul SPA beads (1 mg/ml) [Catalog #RPNQ0095 20 mg/ml, Perkin Elmer, Waltham, Mass., USA; diluted 1:10 with Dulbecco's phosphate buffered saline, PBS Catalog #D8537, Sigma-Aldrich, Steinheim, Germany] and detection of the photon emission with a beta count plate reader [Wallac MicroBeta®, Perkin Elmer, Waltham, Mass., USA].

Compound | pIC50 [1] | pIC50 [2] | pIC50 [3]
CC1C[C@]2(CC[C@@H](NC(=O)c3cnn4cccnc34)CC2)C(=O)N1c1ccc(F)cc1Cl (mixture of isomers) [Example 355, N-[(trans)-2-(2-chloro-4-fluorophenyl)-3-methyl-1-oxo-2-azaspiro[4.5]dec-8-yl]pyrazolo[1,5-a]pyrimidine-3-carboxamide (mixture of isomers at C3)] | 8.47 | ≤ 4.30 | 8.08
Cc1c(C(C)N(C)C)cnc2c(C(=O)N[C@H]3CC[C@@]4(CCN(c5ccc(F)cc5Cl)C4=O)CC3)cnn12 (mixture of isomers) [Example 358, N-[(trans)-2-(2-chloro-4-fluorophenyl)-1-oxo-2-azaspiro[4.5]dec-8-yl]-6-[1-(dimethylamino)ethyl]-7-methylpyrazolo[1,5-a]pyrimidine-3-carboxamide (racemate)] | 8.24 | ≤ 4.30 | 7.39
N#Cc1cc(F)cc(Cl)c1NC(=O)[C@H]1CC[C@H](NC(=O)c2cnn3cccnc23)CC1 [Example 152, N-{trans-4-[(2-chloro-6-cyano-4-fluorophenyl)carbamoyl]cyclohexyl}pyrazolo[1,5-a]pyrimidine-3-carboxamide] | 7.04 | ≤ 4.30 | 6.85
Cc1cc(NC(=O)[C@H]2CC[C@H](NC(=O)c3cnn4cccnc34)CC2)c(Cl)cn1 [Example 153, N-{trans-4-[(5-chloro-2-methylpyridin-4-yl)carbamoyl]cyclohexyl}pyrazolo[1,5-a]pyrimidine-3-carboxamide] | 6.28 | ≤ 4.30 | 6.77
CCN(c1ccccc1Cl)C(=O)[C@H]1CC[C@H](NC(=O)c2[nH]cnc2C(=O)NC)CC1 [Example 158, N^5-{trans-4-[(2-chlorophenyl)(ethyl)carbamoyl]cyclohexyl}-N^4-methyl-1H-imidazole-4,5-dicarboxamide] | 7.47 | ≤ 4.30 | 6.82
CNC(=O)c1nc[nH]c1C(=O)N[C@H]1CC[C@@]2(CCCN(c3ccc(F)cc3Cl)C2=O)CC1 [Example 159] | 7.85 | ≤ 4.30 | 6.89
CNC(=O)c1nc[nH]c1C(=O)N[C@H]1CC[C@H](C(=O)Nc2c(Cl)cc(F)cc2C#N)CC1 [Example 174, N^5-{trans-4-[(2-chloro-6-cyano-4-fluorophenyl)carbamoyl]cyclohexyl}-N^4-methyl-1H-imidazole-4,5-dicarboxamide] | 7.10 | ≤ 4.30 | 6.62
COC1CN(C(=O)c2nc[nH]c2C(=O)N[C@H]2CC[C@@]3(CCN(c4ccc(F)cc4Cl)C3=O)CC2)C1 [Example 188, N-[(trans)-2-(2-chloro-4-fluorophenyl)-1-oxo-2-azaspiro[4.5]dec-8-yl]-4-[(3-methoxyazetidin-1-yl)carbonyl]-1H-imidazole-5-carboxamide] | 9.17 | ≤ 4.30 | 8.57
O=C(N[C@H]1CC[C@@]2(CCN(c3ccc(F)cc3Cl)C2=O)CC1)c1[nH]cnc1C(=O)N1CC(F)(F)C1 [Example 189, N-[(trans)-2-(2-chloro-4-fluorophenyl)-1-oxo-2-azaspiro[4.5]dec-8-yl]-4-[(3,3-difluoroazetidin-1-yl)carbonyl]-1H-imidazole-5-carboxamide] | 9.52 | 5.01 | 8.25
O=C(N[C@H]1CC[C@@]2(CCN(c3ccc(F)cc3Cl)C2=O)CC1)c1[nH]cnc1C(=O)N1CC(C(F)F)C1 [Example 190, N-[(trans)-2-(2-chloro-4-fluorophenyl)-1-oxo-2-azaspiro[4.5]dec-8-yl]-4-{[3-(difluoromethyl)azetidin-1-yl]carbonyl}-1H-imidazole-5-carboxamide] | 10.22 | 4.92 | 8.55
O=C(N[C@H]1CC[C@@]2(CCN(c3ccc(F)cc3Cl)C2=O)CC1)c1[nH]cnc1C(=O)N1CC(O)C1 [Example 192, N-[(trans)-2-(2-chloro-4-fluorophenyl)-1-oxo-2-azaspiro[4.5]dec-8-yl]-4-[(3-hydroxyazetidin-1-yl)carbonyl]-1H-imidazole-5-carboxamide] | 9.68 | ≤ 4.30 | 8.28
O=C(N[C@H]1CC[C@@]2(CCN(c3ccc(F)cc3Cl)C2=O)CC1)c1[nH]cnc1C(=O)N1CC(OC(F)F)C1 [Example 193, N-[(trans)-2-(2-chloro-4-fluorophenyl)-1-oxo-2-azaspiro[4.5]dec-8-yl]-4-{[3-(difluoromethoxy)azetidin-1-yl]carbonyl}-1H-imidazole-5-carboxamide] | 9.22 | 4.80 | 8.30
O=C(N[C@H]1CC[C@@]2(CCN(c3ccc(F)cc3Cl)C2=O)CC1)c1[nH]cnc1C(=O)N1CC2(COC2)C1 [Example 194, N-[(trans)-2-(2-chloro-4-fluorophenyl)-1-oxo-2-azaspiro[4.5]dec-8-yl]-4-(2-oxa-6-azaspiro[3.3]hept-6-ylcarbonyl)-1H-imidazole-5-carboxamide] | 8.82 | ≤ 4.30 | 8.32
Cc1cc(C2CC2)n2ncc(C(=O)N[C@H]3CC[C@H](C(=O)Nc4ccc(F)cc4Cl)CC3)c2n1 [Example 204, N-{trans-4-[(2-chloro-4-fluorophenyl)carbamoyl]cyclohexyl}-7-cyclopropyl-5-methylpyrazolo[1,5-a]pyrimidine-3-carboxamide] | 7.32 | ≤ 4.30 | 6.80
